The OligoGym collection
“And” between values parts separate entries of the source, which are not always exact repeats. Equal values may be shown once. After the bases stand the sugars from the 5' end (letter, count) and the backbone: PS all phosphorothioate, else s phosphorothioate and o phosphodiester by linkage. Methylation of C is not given here. k = constrained ethyl (cEt); d = 2'-deoxy (DNA)

biological target: MALAT1; settings: ASO, A431, 0.005 µM

Sequence | target mRNA inhibition
GTCAAGACAACTGCAT (sugars k3 d10 k3, PS) | 3%
GTCAAGCTCCTGACAA (sugars k3 d10 k3, PS) | 33%
GTCACTGGATAAGTAT (sugars k3 d10 k3, PS) | 48%
GTCTACAAGTTACATG (sugars k3 d10 k3, PS) | 13%
GTCTCATACACTCACT (sugars k3 d10 k3, PS) | -4%
GTCTTAGCAGAGAATT (sugars k3 d10 k3, PS) | 47%
GTGAATTCAACTGGAA (sugars k3 d10 k3, PS) | 50%
GTGGCCTTTTAAAGTA (sugars k3 d10 k3, PS) | 15%
GTGTAGCACCTGGGTC (sugars k3 d10 k3, PS) | 64% and 46%
GTGTGATAGTTCAGGG (sugars k3 d10 k3, PS) | 8%
GTTAACAATTTGCAGG (sugars k3 d10 k3, PS) | 40%
GTTACACCTTGAGTCA (sugars k3 d10 k3, PS) | 53%
GTTACCATAAGTAAGT (sugars k3 d10 k3, PS) | 2%
GTTACTCCAGCATAAA (sugars k3 d10 k3, PS) | 0%
GTTATGACTCAGAAGA (sugars k3 d10 k3, PS) | 26%
GTTCGCAGACAAAGTT (sugars k3 d10 k3, PS) | 36%
GTTGAGGCAAGTCCTC (sugars k3 d10 k3, PS) | 3%
GTTTTATCTAAATACC (sugars k3 d10 k3, PS) | 29%
TAAAAGATCGCCTTCA (sugars k3 d10 k3, PS) | 41%
TAAACGGGTCATCAAA (sugars k3 d10 k3, PS) | 34%
TAAAGTAAATAGGCTA (sugars k3 d10 k3, PS) | 21%
TAAATGACGCAATTCT (sugars k3 d10 k3, PS) | 8%
TAAATTGGTAGCTTTC (sugars k3 d10 k3, PS) | 74% and 80%

Sequence | target mRNA inhibition
TAACAGGCCACTGCCA (sugars k3 d10 k3, PS) | 11%
TAACATAGTTCAACCC (sugars k3 d10 k3, PS) | 17%
TAACTACCAGCCATTT (sugars k3 d10 k3, PS) | 24%
TAACTGATCTGACTTT (sugars k3 d10 k3, PS) | 26%
TAACTTCCCCCAGCTT (sugars k3 d10 k3, PS) | 20%
TAAGAACTCCACAGCT (sugars k3 d10 k3, PS) | 41%
TAAGCCTTCGGTGCCT (sugars k3 d10 k3, PS) | 4%
TAATAGAGCTACTTAG (sugars k3 d10 k3, PS) | -16%
TAATAGCAGCGGGATC (sugars k3 d10 k3, PS) | 30%
TAATGCTAGTCCTCAG (sugars k3 d10 k3, PS) | 38%
TAATTACTCTTGATCT (sugars k3 d10 k3, PS) | 48% and 72%
TACAAAAGCTACCATC (sugars k3 d10 k3, PS) | 12%
TACAACAAGTAAGCCC (sugars k3 d10 k3, PS) | 20%
TACAAGTTACATGTTC (sugars k3 d10 k3, PS) | 20%
TACAGAAAGAGTCCTG (sugars k3 d10 k3, PS) | 17%
TACCATATCCAAACAA (sugars k3 d10 k3, PS) | 11%
TACCTAAACCCACCCC (sugars k3 d10 k3, PS) | 6%
TACCTCTTAAAGCACT (sugars k3 d10 k3, PS) | -17%
TACCTTTTACTCTGAT (sugars k3 d10 k3, PS) | 42%
TACGCAACTGAGCCCC (sugars k3 d10 k3, PS) | 0%
TACTATAGCATCTGTG (sugars k3 d10 k3, PS) | -7%
TACTGCATTTACTTGC (sugars k3 d10 k3, PS) | 20%
TACTTGCCAACTTGGA (sugars k3 d10 k3, PS) | 51%

Sequence | target mRNA inhibition
TAGAGCTTCTCCATTT (sugars k3 d10 k3, PS) | -15%
TAGATTCACTGAATCC (sugars k3 d10 k3, PS) | -4%
TAGGGAAAAGTGGTTG (sugars k3 d10 k3, PS) | -13%
TATAAGGACAGCTAAG (sugars k3 d10 k3, PS) | 21%
TATAATAGAGCTACTT (sugars k3 d10 k3, PS) | 15%
TATAGTTTACCACCTT (sugars k3 d10 k3, PS) | 14%
TATCTGTTAACAGCTG (sugars k3 d10 k3, PS) | 41%
TATGAACCAAAGCTGC (sugars k3 d10 k3, PS) | 7%
TATGAGCTTCAGACCT (sugars k3 d10 k3, PS) | -9%
TATGGATCATGCCCAC (sugars k3 d10 k3, PS) | 27%
TCAACCTCCGTCATGT (sugars k3 d10 k3, PS) | 32%
TCAAGCACCGCTTGAG (sugars k3 d10 k3, PS) | -12% and 8%
TCAAGTGGCCTTTTAA (sugars k3 d10 k3, PS) | -38%
TCAATAGTACTATAGC (sugars k3 d10 k3, PS) | 25%
TCAATCCACTTGATCC (sugars k3 d10 k3, PS) | 14%
TCAATTAATGCTAGTC (sugars k3 d10 k3, PS) | 35%
TCACAAATACGACTGC (sugars k3 d10 k3, PS) | 23%
TCACTACTCCAAGCAT (sugars k3 d10 k3, PS) | 21%
TCAGGATCATTAAGCC (sugars k3 d10 k3, PS) | 37%
TCATAATCTCCCACCT (sugars k3 d10 k3, PS) | 10%
TCATCAACAAAAGCCC (sugars k3 d10 k3, PS) | -8%
TCATTAAGCCACTTCC (sugars k3 d10 k3, PS) | 19%
TCATTACCCCAACTAA (sugars k3 d10 k3, PS) | 17%

Sequence | target mRNA inhibition
TCCAATACTTGTCTTA (sugars k3 d10 k3, PS) | 68% and 75%
TCCATGGTTGTCCTAC (sugars k3 d10 k3, PS) | 35%
TCCCATAATTGTAGTT (sugars k3 d10 k3, PS) | 27%
TCCCCCAACTGCTTGC (sugars k3 d10 k3, PS) | 11%
TCCCCCATTATATTAG (sugars k3 d10 k3, PS) | 14%
TCCCGTACTTCTGTCT (sugars k3 d10 k3, PS) | 41%
TCCCTAACATGCAATA (sugars k3 d10 k3, PS) | 30%
TCCCTGTTAAGACCAT (sugars k3 d10 k3, PS) | 27%
TCCCTTCAGGATCATT (sugars k3 d10 k3, PS) | 10%
TCCGTAACTTTAAATT (sugars k3 d10 k3, PS) | 36%
TCCTATCTTCACCACG (sugars k3 d10 k3, PS) | 40%
TCCTCTACGCACAACG (sugars k3 d10 k3, PS) | 11%
TCCTGAAAGTGCTCAC (sugars k3 d10 k3, PS) | -7%
TCCTGAAATCCCCTAG (sugars k3 d10 k3, PS) | -12%
TCCTGACAAATTATAC (sugars k3 d10 k3, PS) | 28%
TCGGTTTAATCTCTTT (sugars k3 d10 k3, PS) | 63% and 73%
TCTAAATTGGTTCTGG (sugars k3 d10 k3, PS) | 55% and 64%
TCTAACCCAGTTTGTC (sugars k3 d10 k3, PS) | 31%
TCTAGGATCCTCTACG (sugars k3 d10 k3, PS) | -24%
TCTAGGCCATCATACT (sugars k3 d10 k3, PS) | 40%
TCTCAACCTCCGTCAT (sugars k3 d10 k3, PS) | 27%
TCTCTTGAGGGACAGT (sugars k3 d10 k3, PS) | -7%
TCTGAGTGAAGTGTAC (sugars k3 d10 k3, PS) | 34%

Sequence | target mRNA inhibition
TCTGATTATCCTGATA (sugars k3 d10 k3, PS) | 11%
TCTGTGTTATGCCTGG (sugars k3 d10 k3, PS) | 17%
TCTGTTACACCTTGAG (sugars k3 d10 k3, PS) | 48% and 64%
TCTGTTATGTTCACCT (sugars k3 d10 k3, PS) | 52%
TCTTAGTAACCTATTG (sugars k3 d10 k3, PS) | 19%
TCTTCCGCTCAAATCC (sugars k3 d10 k3, PS) | 41%
TCTTGAGGGACAGTAG (sugars k3 d10 k3, PS) | -7%
TGAAACCGATTATGGA (sugars k3 d10 k3, PS) | 3%
TGAAAGAACTAGTGGT (sugars k3 d10 k3, PS) | 23%
TGAACCAAAGCTGCAC (sugars k3 d10 k3, PS) | 2%
TGAACCGGAGCAGGAA (sugars k3 d10 k3, PS) | 5%
TGACACTTTCCTTGCC (sugars k3 d10 k3, PS) | 66% and 46%
TGAGGCAAACGAAACA (sugars k3 d10 k3, PS) | 16%
TGAGGCAAGTCCTCAT (sugars k3 d10 k3, PS) | 5%
TGAGTATAAGCCTGAA (sugars k3 d10 k3, PS) | 25%
TGATCTGCGGCCCCCC (sugars k3 d10 k3, PS) | -50%
TGATTTTAAGGTTGCA (sugars k3 d10 k3, PS) | 70% and 67%
TGCAATACTGCAGATG (sugars k3 d10 k3, PS) | 20%
TGCAGGGACGGTTGAG (sugars k3 d10 k3, PS) | -22%
TGCAGTCCTGCGACTT (sugars k3 d10 k3, PS) | 15%
TGCAGTTTCTATAGTA (sugars k3 d10 k3, PS) | 9%
TGCCAACAGCACAGCG (sugars k3 d10 k3, PS) | 1%
